Reference: ChEMBL document CHEMBL1201862, “PubChem BioAssay data set” (2004)
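Growth conditions: 96-well plates. Treatment: test compound, 48 hours, 5 concentrations. Analysis: linear interpolation between bracketing concentrations; unreached endpoints set to highest concentration. GI50: concentration for 50% inhibition of growth.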 Activity calls are given as the source filed them. Rule as the data show it: active = GI50 up to about 1.1 µM and inactive = higher.

Assays:
Assay in all cases: NCI tumour cell line growth inhibition, 48 h
SNB-75 = tested on: SNB-75
M14 = tested on: M14
T47D = tested on: T47D
NCI/ADR-RES = tested on: NCI/ADR-RES
HOP-62 = tested on: HOP-62
UACC-257 = tested on: UACC-257
MDA-N = tested on: MDA-N
LOX IMVI = tested on: LOX IMVI
A549 = tested on: A549
CAKI-1 = tested on: CAKI-1
UO-31 = tested on: UO-31
EKVX = tested on: EKVX
U-251 = tested on: U-251
BT-549 = tested on: BT-549
SK-OV-3 = tested on: SK-OV-3
COLO 205 = tested on: COLO 205
HCT-116 = tested on: HCT-116
HCT-15 = tested on: HCT-15
SR = tested on: SR

SMILES | GI50 (SNB-75) | GI50 (M14) | GI50 (T47D) | GI50 (NCI/ADR-RES) | GI50 (HOP-62) | GI50 (UACC-257) | GI50 (MDA-N) | GI50 (LOX IMVI) | GI50 (A549) | GI50 (CAKI-1) | GI50 (UO-31) | GI50 (EKVX) | GI50 (U-251) | GI50 (BT-549) | GI50 (SK-OV-3) | GI50 (COLO 205) | GI50 (HCT-116) | GI50 (HCT-15) [µM] | GI50 (SR)
OC(c1ccc(F)cc1)(c1ccc(F)cc1)C1CC1 | 50.6 µM (inactive) | 21.5 µM (inactive) | 38 µM (inactive) | 21.3 µM (inactive) | 65.9 µM (inactive) | 26 µM (inactive) | 19.4 µM (inactive) | 20 µM (inactive) | 26.6 µM (inactive) | 25.3 µM (inactive) | 21.3 µM (inactive) | 29.2 µM (inactive) | 24 µM (inactive) | 19.2 µM (inactive) | 37.9 µM (inactive) | 16.2 µM (inactive) | 26.8 µM (inactive) | 23 | 
COc1cc(C(C)=O)cc(C(=O)N(C(C)C)C(C)C)c1[Si](C)(C)C | 9.2 µM (inactive) | > 100 µM (inactive) | > 100 µM (inactive) |  | > 100 µM (inactive) | > 100 µM (inactive) | > 100 µM (inactive) | > 100 µM (inactive) | 67.8 µM (inactive) | > 100 µM (inactive) | > 100 µM (inactive) |  | > 100 µM (inactive) | > 100 µM (inactive) | 28.9 µM (inactive) | > 100 µM (inactive) | > 100 µM (inactive) | > 100 | 
CC(C)=CCNc1ncnc2c1ncn2CCC(=O)O | > 100 µM (inactive) | > 100 µM (inactive) | > 100 µM (inactive) | > 100 µM (inactive) | > 100 µM (inactive) |  | > 100 µM (inactive) | > 100 µM (inactive) | > 100 µM (inactive) |  | > 100 µM (inactive) |  | > 100 µM (inactive) | > 100 µM (inactive) | > 100 µM (inactive) | > 100 µM (inactive) | > 100 µM (inactive) | > 100 | > 100 µM (inactive)
Clc1ccc2c(NCCCC/N=C/c3ccccc3)ccnc2c1 | 11.1 µM (inactive) | 14.4 µM (inactive) | 12.6 µM (inactive) | 20.7 µM (inactive) | 10 µM (inactive) | 12.3 µM (inactive) | 11.7 µM (inactive) | 13.5 µM (inactive) | 13.4 µM (inactive) |  | 14.8 µM (inactive) | 15.5 µM (inactive) | 11 µM (inactive) | 13.4 µM (inactive) | 10.1 µM (inactive) | 4.53 µM (inactive) | 6.24 µM (inactive) | 17.8 | 
CN(CCc1ccccn1)c1ccc2c(c1)C(=O)c1ccccc1-2 | 99.1 µM (inactive) | > 100 µM (inactive) | 73.8 µM (inactive) | > 100 µM (inactive) | > 100 µM (inactive) | 54.6 µM (inactive) | 64.9 µM (inactive) | > 100 µM (inactive) | 14.4 µM (inactive) | > 100 µM (inactive) | > 100 µM (inactive) | 18.5 µM (inactive) | 43.3 µM (inactive) | 78.9 µM (inactive) | > 100 µM (inactive) | 35.5 µM (inactive) | > 100 µM (inactive) | 23 | 
CC(=O)/C(=C/NC(=S)c1cccnc1)C(=O)Nc1ccccc1C | > 100 µM (inactive) | > 100 µM (inactive) | > 100 µM (inactive) | 97.5 µM (inactive) | > 100 µM (inactive) | > 100 µM (inactive) | > 100 µM (inactive) | > 100 µM (inactive) | > 100 µM (inactive) | 41.3 µM (inactive) | > 100 µM (inactive) | > 100 µM (inactive) | 71.9 µM (inactive) | > 100 µM (inactive) | > 100 µM (inactive) | > 100 µM (inactive) | 83 µM (inactive) | > 100 | 
COc1cc(C2c3cc4c(cc3C(=O)C3CCC(=O)N32)OCO4)cc(OC)c1O (configuration not stated) | > 50 µM (inactive) | > 50 µM (inactive) | > 50 µM (inactive) | > 50 µM (inactive) | > 50 µM (inactive) | > 50 µM (inactive) | > 50 µM (inactive) |  | > 50 µM (inactive) |  | > 50 µM (inactive) | > 50 µM (inactive) | > 50 µM (inactive) | > 50 µM (inactive) | > 50 µM (inactive) | > 50 µM (inactive) | > 50 µM (inactive) | > 50 | > 50 µM (inactive)
Cc1[nH]c2ncn3ncnc3c2c1Cc1ccccc1 | > 100 µM (inactive) | > 100 µM (inactive) | > 100 µM (inactive) | > 100 µM (inactive) | > 100 µM (inactive) | > 100 µM (inactive) | > 100 µM (inactive) |  | > 100 µM (inactive) | > 100 µM (inactive) | > 100 µM (inactive) | > 100 µM (inactive) | > 100 µM (inactive) | > 100 µM (inactive) | > 100 µM (inactive) | > 100 µM (inactive) | > 100 µM (inactive) | > 100 | 
C[n+]1c2ccccc2n2c3ccccc3c(NCc3ccco3)c(C#N)c21 | 2.02 µM (inactive) | 2.3 µM (inactive) | 3.67 µM (inactive) | 2.2 µM (inactive) | 1.46 µM (inactive) | 3.48 µM (inactive) | 1.96 µM (inactive) | 1.05 µM (active) | 3.15 µM (inactive) | 2.07 µM (inactive) | 1.22 µM (inactive) | 2.78 µM (inactive) | 2 µM (inactive) | 18.5 µM (inactive) | 3.85 µM (inactive) | 1.67 µM (inactive) | 0.957 µM (active) | 1.05 | 
S=C1NC2=C(COc3ccccc32)C(c2ccc(Cl)cc2)N1 (configuration not stated) | 20 µM (inactive) | 18.7 µM (inactive) | 18.2 µM (inactive) | 18.9 µM (inactive) | 17.1 µM (inactive) | 21.2 µM (inactive) | 16.4 µM (inactive) | 16.3 µM (inactive) | 20.2 µM (inactive) |  | 18.4 µM (inactive) | 17.1 µM (inactive) | > 10 µM (inactive) | 21.1 µM (inactive) | 19.6 µM (inactive) | 18.7 µM (inactive) | 15.5 µM (inactive) |  | 
CSc1ncnc2c1cnn2Cc1cn(CCCCO)nn1 | > 100 µM (inactive) | > 100 µM (inactive) | > 100 µM (inactive) |  | > 100 µM (inactive) | > 100 µM (inactive) | > 100 µM (inactive) | > 100 µM (inactive) | > 100 µM (inactive) | > 100 µM (inactive) | > 100 µM (inactive) | > 100 µM (inactive) | > 100 µM (inactive) | > 100 µM (inactive) | > 100 µM (inactive) | > 100 µM (inactive) | > 100 µM (inactive) | > 100 | > 100 µM (inactive)
C[C@]12CC[C@@H]3c4ccc(OP(=O)(O)O)cc4CC[C@H]3[C@@H]1CCC2=O | 68.9 µM (inactive) | 61.4 µM (inactive) | 39.6 µM (inactive) | 56 µM (inactive) | > 100 µM (inactive) | > 100 µM (inactive) | 58.5 µM (inactive) | 95.9 µM (inactive) | 90.2 µM (inactive) | > 100 µM (inactive) | 80.7 µM (inactive) | 42.8 µM (inactive) | 93.3 µM (inactive) | 67.6 µM (inactive) | > 100 µM (inactive) | > 100 µM (inactive) | 55.1 µM (inactive) | > 100 | 
